# Measured values as given in patent US7981927B2, “Steroids derivatives as selective progesterone receptor modulators” (Janssen Pharmaceutica N.V., priority 2007, dated 2011).
# Test system: T47D human breast cancer cells
# Test: T47D human breast cancer cells alkaline phosphatase assay
# Format: cell-based
# Conditions: 24 h with test compound, alkaline phosphatase luminescence readout
# Description: T47D human breast cancer cells were grown in RPMI medium without phenol red (Invitrogen) containing 10% (v/v) heat-inactivated fetal bovine serum (FBS; Hyclone), 1% (v/v) penicillin-streptomycin (Invitrogen), 1% (w/v) glutamine (Invitrogen), and […] insulin (Sigma). Incubation conditions were 37° C. in a humidified 5% (v/v) carbon dioxide environment.
# The cells were plated in 96-well tissue culture plates at 10,000 cells per well in assay medium [RPMI medium without phenol red (Invitrogen) containing 5% (v/v) charcoal-treated FBS (Hyclone) and 1% (v/v) penicillin-streptomycin (Invitrogen)]. Two days later, the medium was decanted and test compound or control were added at a final concentration of 0.1% (v/v) dimethyl sulfoxide in fresh assay medium. Twenty-four hours later, an alkaline phosphatase assay was performed using a SEAP kit (BD Biosciences Clontech, Palo Alto, Calif.). Briefly, the medium was decanted and the cells were fixed for 30 minutes at room temperature with 5% (v/v) formalin (Sigma). The cells were washed once with room temperature Hank's buffered saline solution (Invitrogen). […] After 1 hour incubation at room temperature in the dark, the lysate was transferred to a white 96-well plate (Dynex) and luminescence was read using a LuminoSkan Ascent (Thermo Electron, Woburn, Mass.). […]
row,IC50 [nM],SMILES
1,750,"CN(C)c1ccc([C@@H]2C[C@]3(C)C(=O)OCC[C@H]3[C@@H]3CCC4=CC(=O)CCC4=C23)cc1 (stereo in doubt) [compound 1, 11-(4-Dimethylamino-phenyl)-12a-methyl-3,4,4a,5,6,9,10,11,12,12a-decahydro-4bH-2-oxa-chrysene-1,8-dione]"
2,33,"CC#C[C@]1(O)OCC[C@H]2[C@@H]3CCC4=CC(=O)CCC4=C3[C@@H](c3ccc(N(C)C)cc3)C[C@@]21C (stereo in doubt) [compound 2, 11-(4-Dimethylamino-phenyl)-1-hydroxy-12a-methyl-1-prop-1-ynyl-1,3,4,4a,4b,5,6,9,10,11,12,12a-dodecahydro-2-oxa-chrysen-8-one]"
